Reference: ChEMBL document CHEMBL1121997, “2-beta-D-Ribofuranosylthiazole-4-carboxamide, a novel potential antitumor agent for lung tumors and metastases” (1982)

How the values were obtained:
Assay type in all cases: functional
Mus musculus [1] = experiment: Effect of compound on life span of mice inoculated intravenously with lewis lung carcinoma at the dose of 400 mg/kg in experiment 1; conditions: route intravenous
Mus musculus [2] = experiment: Effect of compound on life span of mice inoculated intravenously with lewis lung carcinoma at the dose of 400 mg/kg in experiment 3; conditions: route intravenous
Mus musculus [3] = experiment: Effect of compound on life span of mice inoculated intravenously with lewis lung carcinoma at the dose of 50 mg/kg in experiment 2; conditions: route intravenous
Mus musculus [4] = experiment: Effect of compound on life span of mice inoculated intravenously with lewis lung carcinoma at the dose of 50 mg/kg in experiment 3; conditions: route intravenous
Mus musculus [5] = experiment: Effect of compound on life span of mice inoculated intravenously with lewis lung carcinoma at the dose of 6.25 mg/kg in experiment 4; conditions: route intravenous
Mus musculus [6] = experiment: Effect of compound on life span of mice inoculated intravenously with lewis lung carcinoma at the dose of 800 mg/kg in experiment 1; conditions: route intravenous
Mus musculus [7] = experiment: Effect of compound on life span of mice inoculated intravenously with lewis lung carcinoma at the dose of 800 mg/kg in experiment 2; conditions: route intravenous
Mus musculus [8] = experiment: Effect of compound on life span of mice inoculated intravenously with lewis lung carcinoma at the dose of 800 mg/kg in experiment 3; conditions: route intravenous
Mus musculus [9] = experiment: Number of survivors out of 10 mice after 60 days infected with lewis lung carcinoma at the dose of 100 mg/kg in experiment 1
Mus musculus [10] = experiment: Number of survivors out of 10 mice after 60 days infected with lewis lung carcinoma at the dose of 100 mg/kg in experiment 2
Mus musculus [11] = experiment: Number of survivors out of 10 mice after 60 days infected with lewis lung carcinoma at the dose of 100 mg/kg in experiment 3
Mus musculus [12] = experiment: Number of survivors out of 10 mice after 60 days infected with lewis lung carcinoma at the dose of 12.5 mg/kg in experiment 4
Mus musculus [13] = experiment: Number of survivors out of 10 mice after 60 days infected with lewis lung carcinoma at the dose of 200 mg/kg in experiment 1
Mus musculus [14] = experiment: Number of survivors out of 10 mice after 60 days infected with lewis lung carcinoma at the dose of 200 mg/kg in experiment 2
Mus musculus [15] = experiment: Number of survivors out of 10 mice after 60 days infected with lewis lung carcinoma at the dose of 200 mg/kg in experiment 3
Mus musculus [16] = experiment: Number of survivors out of 10 mice after 60 days infected with lewis lung carcinoma at the dose of 25 mg/kg in experiment 1
Mus musculus [17] = experiment: Number of survivors out of 10 mice after 60 days infected with lewis lung carcinoma at the dose of 25 mg/kg in experiment 2
Mus musculus [18] = experiment: Number of survivors out of 10 mice after 60 days infected with lewis lung carcinoma at the dose of 25 mg/kg in experiment 3
Mus musculus [19] = experiment: Number of survivors out of 10 mice after 60 days infected with lewis lung carcinoma at the dose of 25 mg/kg in experiment 4
Mus musculus [20] = experiment: Number of survivors out of 10 mice after 60 days infected with lewis lung carcinoma at the dose of 3.12 mg/kg in experiment 4
Mus musculus [21] = experiment: Effect of compound on life span of mice inoculated intravenously with lewis lung carcinoma at the dose of 12.5 mg/kg in experiment 4; conditions: route intravenous
Mus musculus [22] = experiment: Effect of compound on life span of mice inoculated intravenously with lewis lung carcinoma at the dose of 200 mg/kg in experiment 3; conditions: route intravenous
Mus musculus [23] = experiment: Effect of compound on life span of mice inoculated intravenously with lewis lung carcinoma at the dose of 25 mg/kg in experiment 3; conditions: route intravenous
Mus musculus [24] = experiment: Effect of compound on life span of mice inoculated intravenously with lewis lung carcinoma at the dose of 25 mg/kg in experiment 4; conditions: route intravenous
Mus musculus [25] = experiment: Effect of compound on life span of mice inoculated intravenously with lewis lung carcinoma at the dose of 3.12 mg/kg in experiment 4; conditions: route intravenous
Mus musculus [26] = experiment: Effect of compound on life span of mice inoculated intravenously with lewis lung carcinoma at the dose of 1.56 mg/kg in experiment 4; conditions: route intravenous
Mus musculus [27] = experiment: Effect of compound on life span of mice inoculated intravenously with lewis lung carcinoma at the dose of 100 mg/kg in experiment 1; conditions: route intravenous
Mus musculus [28] = experiment: Effect of compound on life span of mice inoculated intravenously with lewis lung carcinoma at the dose of 100 mg/kg in experiment 2; conditions: route intravenous
Mus musculus [29] = experiment: Effect of compound on life span of mice inoculated intravenously with lewis lung carcinoma at the dose of 0.78 mg/kg in experiment 4; conditions: route intravenous
Mus musculus [30] = experiment: Average body weight in grams on day 5 minus average body weight on day 1 at the dose of 200 mg/kg in experiment 3
Mus musculus [31] = experiment: Average body weight in grams on day 5 minus average body weight on day 1 at the dose of 25 mg/kg in experiment 1
Mus musculus [32] = experiment: Average body weight in grams on day 5 minus average body weight on day 1 at the dose of 25 mg/kg in experiment 2
Mus musculus [33] = experiment: Average body weight in grams on day 5 minus average body weight on day 1 at the dose of 25 mg/kg in experiment 3
Mus musculus [34] = experiment: Average body weight in grams on day 5 minus average body weight on day 1 at the dose of 25 mg/kg in experiment 4
Mus musculus [35] = experiment: Average body weight in grams on day 5 minus average body weight on day 1 at the dose of 0.78 mg/kg in experiment 4
Mus musculus [36] = experiment: Average body weight in grams on day 5 minus average body weight on day 1 at the dose of 1.56 mg/kg in experiment 4
Mus musculus [37] = experiment: Average body weight in grams on day 5 minus average body weight on day 1 at the dose of 100 mg/kg in experiment 1
Mus musculus [38] = experiment: Average body weight in grams on day 5 minus average body weight on day 1 at the dose of 100 mg/kg in experiment 2
Mus musculus [39] = experiment: Average body weight in grams on day 5 minus average body weight on day 1 at the dose of 100 mg/kg in experiment 3
Mus musculus [40] = experiment: Average body weight in grams on day 5 minus average body weight on day 1 at the dose of 12.5 mg/kg in experiment 4
Mus musculus [41] = experiment: Number of survivors out of 10 mice after 60 days infected with lewis lung carcinoma at the dose of 400 mg/kg in experiment 1
Mus musculus [42] = experiment: Number of survivors out of 10 mice after 60 days infected with lewis lung carcinoma at the dose of 0.78 mg/kg in experiment 4
Mus musculus [43] = experiment: Number of survivors out of 10 mice after 60 days infected with lewis lung carcinoma at the dose of 1.56 mg/kg in experiment 4
Mus musculus [44] = experiment: Number of survivors out of 10 mice after 60 days infected with lewis lung carcinoma at the dose of 400 mg/kg in experiment 2
Mus musculus [45] = experiment: Number of survivors out of 10 mice after 60 days infected with lewis lung carcinoma at the dose of 400 mg/kg in experiment 3
Mus musculus [46] = experiment: Number of survivors out of 10 mice after 60 days infected with lewis lung carcinoma at the dose of 50 mg/kg in experiment 1
Mus musculus [47] = experiment: Number of survivors out of 10 mice after 60 days infected with lewis lung carcinoma at the dose of 50 mg/kg in experiment 2
Mus musculus [48] = experiment: Number of survivors out of 10 mice after 60 days infected with lewis lung carcinoma at the dose of 50 mg/kg in experiment 3
Mus musculus [49] = experiment: Number of survivors out of 10 mice after 60 days infected with lewis lung carcinoma at the dose of 6.25 mg/kg in experiment 4
Mus musculus [50] = experiment: Number of survivors out of 10 mice after 60 days infected with lewis lung carcinoma at the dose of 800 mg/kg in experiment 1
Mus musculus [51] = experiment: Number of survivors out of 10 mice after 60 days infected with lewis lung carcinoma at the dose of 800 mg/kg in experiment 2
Mus musculus [52] = experiment: Number of survivors out of 10 mice after 60 days infected with lewis lung carcinoma at the dose of 800 mg/kg in experiment 3
Mus musculus [53] = experiment: Average body weight in grams on day 5 minus average body weight on day 1 at the dose of 200 mg/kg in experiment 1
Mus musculus [54] = experiment: Average body weight in grams on day 5 minus average body weight on day 1 at the dose of 200 mg/kg in experiment 2
Mus musculus [55] = experiment: Average body weight in grams on day 5 minus average body weight on day 1 at the dose of 3.12 mg/kg in experiment 4
Mus musculus [56] = experiment: Average body weight in grams on day 5 minus average body weight on day 1 at the dose of 400 mg/kg in experiment 1
Mus musculus [57] = experiment: Average body weight in grams on day 5 minus average body weight on day 1 at the dose of 400 mg/kg in experiment 2
Mus musculus [58] = experiment: Average body weight in grams on day 5 minus average body weight on day 1 at the dose of 400 mg/kg in experiment 3
Mus musculus [59] = experiment: Average body weight in grams on day 5 minus average body weight on day 1 at the dose of 50 mg/kg in experiment 1
Mus musculus [60] = experiment: Average body weight in grams on day 5 minus average body weight on day 1 at the dose of 50 mg/kg in experiment 2
Mus musculus [61] = experiment: Average body weight in grams on day 5 minus average body weight on day 1 at the dose of 50 mg/kg in experiment 3
Mus musculus [62] = experiment: Average body weight in grams on day 5 minus average body weight on day 1 at the dose of 6.25 mg/kg in experiment 4
Mus musculus [63] = experiment: Average body weight in grams on day 5 minus average body weight on day 1 at the dose of 800 mg/kg in experiment 1
Mus musculus [64] = experiment: Average body weight in grams on day 5 minus average body weight on day 1 at the dose of 800 mg/kg in experiment 2
Mus musculus [65] = experiment: Average body weight in grams on day 5 minus average body weight on day 1 at the dose of 800 mg/kg in experiment 3

## NC(=O)c1csc([C@@H]2O[C@H](CO)[C@@H](O)[C@H]2O)n1 [TIAZOFURIN]
Mus musculus [1]
  Median life span: 9.5 days
Mus musculus [2]
  Median life span: 20 days
Mus musculus [3]
  Median life span: 47 days
Mus musculus [4]
  Median life span: 55 days
Mus musculus [5]
  Median life span: 25.3 days
Mus musculus [6]
  Median life span: 11.3 days
Mus musculus [7]
  Median life span: 8.5 days
Mus musculus [8]
  Median life span: 11.3 days
Mus musculus [9]
  Survivors: 9
Mus musculus [10]
  Survivors: 9
Mus musculus [11]
  Survivors: 10
Mus musculus [12]
  Survivors: 7
Mus musculus [13]
  Survivors: 10
Mus musculus [14]
  Survivors: 10
Mus musculus [15]
  Survivors: 8
Mus musculus [16]
  Survivors: 10
Mus musculus [17]
  Survivors: 10
Mus musculus [18]
  Survivors: 7
Mus musculus [19]
  Survivors: 9
Mus musculus [20]
  Survivors: 0
Mus musculus [21]
  Median life span: 39.5 days
Mus musculus [22]
  Median life span: 16 days
Mus musculus [23]
  Median life span: 47 days
Mus musculus [24]
  Median life span: 7 days
Mus musculus [25]
  Median life span: 22.8 days
Mus musculus [26]
  Median life span: 23 days
Mus musculus [27]
  Median life span: 17 days
Mus musculus [28]
  Median life span: 46 days
Mus musculus [29]
  Median life span: 20 days
Mus musculus [30]
  Weight change: 0.7 g
Mus musculus [31]
  Weight change: 1.2 g
Mus musculus [32]
  Weight change: 1 g
Mus musculus [33]
  Weight change: 1.1 g
Mus musculus [34]
  Weight change: 1.5 g
Mus musculus [35]
  Weight change: 2 g
Mus musculus [36]
  Weight change: 1.7 g
Mus musculus [37]
  Weight change: 1.3 g
Mus musculus [38]
  Weight change: 1.3 g
Mus musculus [39]
  Weight change: 0.9 g
Mus musculus [40]
  Weight change: 1.9 g
Mus musculus [41]
  Survivors: 7
Mus musculus [42]
  Survivors: 0
Mus musculus [43]
  Survivors: 0
Mus musculus [44]
  Survivors: 10
Mus musculus [45]
  Survivors: 6
Mus musculus [46]
  Survivors: 10
Mus musculus [47]
  Survivors: 9
Mus musculus [48]
  Survivors: 9
Mus musculus [49]
  Survivors: 0
Mus musculus [50]
  Survivors: 6
Mus musculus [51]
  Survivors: 1
Mus musculus [52]
  Survivors: 0
Mus musculus [53]
  Weight change: 1.3 g
Mus musculus [54]
  Weight change: 0.7 g
Mus musculus [55]
  Weight change: 1.8 g
Mus musculus [56]
  Weight change: 1.2 g
Mus musculus [57]
  Weight change: 0.4 g
Mus musculus [58]
  Weight change: 0.5 g
Mus musculus [59]
  Weight change: 2.2 g
Mus musculus [60]
  Weight change: 1.6 g
Mus musculus [61]
  Weight change: 1.2 g
Mus musculus [62]
  Weight change: 2.3 g
Mus musculus [63]
  Weight change: 1.3 g
Mus musculus [64]
  Weight change: -2.1 g
Mus musculus [65]
  Weight change: -0.8 g
